Assay results reported in patent publication EP0103895A2, “Novel hydroxylamine derivatives, production and use thereof” (MEIJI SEIKA KABUSHIKI KAISHA, priority 1982, dated 1984).
Several values for one entry are separate records, joined by “and”; a condition that tells them apart may be missing. Equal values may be shown once. Read-outs that look alike come from different tables or passages of the source.

Experiments:
[1] = test system: fowl roundworm (Ascaridia galli); assay: Anthelmintic test in chickens artificially infected with fowl roundworm, single oral dose in gelatin capsule, worm bodies counted within 48 hours (Test Examples A1, B1, C1, D1); assay type: in vivo; settings: Ascaridia galli, po, 48 h, chicken, chickens No.1-3, read-out: Anthelmintic effect after 48 hours; for inhibition in vivo at 30 mg/kg: 30 mg/Kg oral in gelatin capsule
Method: Chickens infected artificially with fowl roundworm (Ascaridia galli) were employed in groups each consisting of three chickens. Fecal matter testing was conducted before administration of medicine to confirm infection with the worm. The quantity of the compound provided for testing was 10 mg and 20 mg per Kg of body weight, which was orally administered each in a gelatin capsule to the chicken. The number of worm bodies discharged within 48 hours after administration of medicine was counted, the chicken was killed after 48 hours and the number of worm bodies remaining in the enteron was counted to determine the anthelmintic percentage, wherefrom the antihelmintic effect was judged.
The same as that in Test Example Al.
The same as that in Test Example Al except that the compound provided for testing was in quantities of 30 mg and 50 mg per Kg of body weight, which were orally administered to the chickens in gelatin capsules.
The same as that in Test Example Al, except that the compounds provided for testing were used in quantities of 15 mg and 30 mg per Kg of body weight, which were orally administered each in a gelatin capsule to the chicken.

[2] = test system: fowl roundworm (As. galli); assay: Anthelmintic test in chickens artificially infected with fowl roundworm, compound added to feed, E.P.G. and worm count up to 21st day (Test Examples A2, B2, C2, D2); assay type: in vivo, Ascaridia galli; settings: chicken
Method: Chickens artificially infected with fowl roundworm (As. galli) were employed in groups each of two chickens.
Fecal matter testing was conducted before initiation of the test and on the 7th, 14th and 21st day after initiation of the test. Reduction in worm egg number was examined by calculating E.P.G. (worm eggs per 1 g of fecal matter), and the number of discharged worm bodies and the number of worm bodies remaining in the enteron when the chicken was killed on 21st day were counted to determine the anthelmintic percentage, from which the anthelmintic effect was judged.

[3] = test system: canine filaria; Dirofilaria immitis; assay: Test of anthelmintic effect against canine filaria in naturally infected dogs, subcutaneous injection, microfilaria in blood and adult filaria at autopsy (Test Examples A10, B10, C10, D10); assay type: in vivo; settings: for inhibition in vivo at 30 mg/kg / inhibition in vivo at 20 mg/kg: Dirofilaria immitis, sc, 240 h
Method: Eight dogs infected with canine filaria; Diro- filaria immitis (naturally infected dogs) were employed in groups each of two dogs.
The compounds provided for tests were Compound Nos. Al, A3 and A12. 20 mg of each was administered by subcutaneous injection per Kg of body weight to each of the two dogs as a suspension in 1% "Tween 80" solution once per day for three days. As control, 3 ml of the 1% "Tween 80" solution was subcutaneously injected into two dogs once per day for three days.
Before administration and on the 10th day after administration, 20 µl of earlobe blood of each dog was sampled and examined to determine the change in microfilaria (mf) according to the concentrated smear color method, and judgement on the effect on microfilaria (mf) was made. Judgement relating to adult filaria was made on the 10th day after the last administration by killing the dogs and carrying out autopsis.
30 mg of each compound was administered by subcutaneous injection per Kg of body weight to each of the two dogs as a suspension in 1% "Tween 80" solution once per day for three days. As control, 3 ml of the 1% "Tween 80" solution was subcutaneously injected into two dogs once per day for three days.
30 mg of each compound was administered by subcutaneous injection per Kg of body weight to each of two dogs as a suspension in 1% "Tween 80" solution once per day for three days. As control, 3 ml of the 1% "Tween 80" solution was subcutaneously injected to two dogs once per day for three days.
20 mg of each compound was administered by subcutaneous injection per kg of body weight once per day for three days to each of two dogs. These compounds were administered as a suspension in 1% "Tween 80" in the case of Compound No.Dl3 and as solutions dissolved in distilled water for injection in the case of Compounds Nos. D10 and D16, respectively. As control, 3 ml of the 1% "Tween 80" solution was subcutaneously injected into two dogs once per day for three days.

[4] = test system: fowl roundworm (As. galli); assay: Anthelmintic test in chickens infected with fowl roundworm, single oral dose of 40 mg per Kg, worm bodies counted within 24 hours (Test Example E1); assay type: in vivo, Ascaridia galli; settings: 40 mg per Kg oral in gelatin capsule; for inhibition in vivo at 40 mg/kg: Ascaridia galli, 24 h, chicken No.1, read-out: Anthelmintic effect after one day
Method: Chickens infected with fowl roundworm (As. galli) were employed in groups each consisting of five chickens. The compound provided for testing was orally administered in a quantity of 40 mg per Kg of body weight to each chicken in a gelatin capsule. The number of worm bodies discharged within 24 hours after administration of the medicine was counted. Then the chicken was killed, and the number of worm bodies remaining in the enteron was counted to determine the anthelmintic percentage, wherefrom the anthelmintic effect was judged.

[5] = test system: fowl roundworm (As. galli); assay: Anthelmintic test in chickens infected with fowl roundworm, compound added to feed at 250 ppm and 1,000 ppm, E.P.G. and worm count on 5th day (Test Example E2); assay type: in vivo, Ascaridia galli; settings: for E.P.G. after 5 days: worm egg number in 1 g of fecal matter; for anthelmintic effect / inhibition in vivo at 250 ppm / inhibition in vivo at 1000 ppm: 5th day; for inhibition in vivo at 250 ppm / inhibition in vivo at 1000 ppm: Ascaridia galli, feed or water, 120 h, read-out: Anthelmintic effect
Method: Chickens infected with fowl roundworm (As. galli) were employed in groups each of two chickens.
The compound provided for the test was dissolved in a small amount of ethyl alcohol and adsorbed on defatted rice bran and added to chicken feed at levels of 250 ppm and 1,000 ppm. As control, a feed containing no such compound was employed.
Fecal matter testing was conducted before initiation of the test and on the 5th day after initiation of the test. The reduction in worm egg count was examined by calculating the E.P.G. (worm egg number in 1 g of fecal matter). The number of discharged worm bodies and the number of worm bodies remaining in the enteron when the chicken was killed on 5th day were counted to determined the anthelmintic percentage, from which the anthelmintic effect was judged.

[6] = 1000 ppm in feed, chicken No. 1
[7] = 1000 ppm in feed, chicken No. 2

| SMILES | inhibition in vivo at 40 mg/kg [4] [%] | Anthelmintic effect after one day ([4]; chicken No.2) | Anthelmintic effect after one day ([4]; chicken No.3) | Anthelmintic effect after one day ([4]; chicken No.4) | Anthelmintic effect after one day ([4]; chicken No.5) | E.P.G. after 5 days ([5]; 250 ppm in feed, chicken No. 1) | anthelmintic effect ([5]; 250 ppm in feed, chicken No. 2) | E.P.G. after 5 days ([5]; 250 ppm in feed, chicken No. 2) | E.P.G. after 5 days [5, 6] | anthelmintic effect [5, 7] | E.P.G. after 5 days [5, 7] | inhibition in vivo at 250 ppm ([5]; 250 ppm in feed, chicken No. 1) [%] | inhibition in vivo at 1000 ppm [5, 6] [%] | other results |
| --- | --- | --- | --- | --- | --- | --- | --- | --- | --- | --- | --- | --- | --- | --- |
| C=CCON(CC=CC)C(C)=O [Compound C9] | – | – | – | – | – | – | – | – | – | – | – | – | – | inhibition in vivo at 30 mg/kg [1]: 100%; inhibition in vivo at 50 mg/kg ([1]; 50 mg/Kg oral in gelatin capsule): 100%; inhibition in vivo at 25 ppm ([2]; Ascaridia galli, feed or water, 504 h, 25 ppm in feed, read-out: Anthelmintic effect): 100%; inhibition in vivo at 50 ppm ([2]; Ascaridia galli, feed or water, 504 h, 50 ppm in feed, read-out: Anthelmintic effect): 100%; Change of E.P.G. 21st day ([2]; 25 ppm in feed): 0; Change of E.P.G. 21st day ([2]; 50 ppm in feed): 0; inhibition in vivo at 30 mg/kg ([3]; dog, 30 mg/Kg x 3, subcutaneous injection, read-out: Effect on adult filaria: Percent of worms killed): 70%; inhibition in vivo at 30 mg/kg ([3]; dogs, administration of 30 mg/Kg repeated three times, given as about 50% or more, read-out: anthelmintic effect against adult filaria): ≥ 50%; Number of microfilaria/20 µl On 10th day after the last administration ([3]; dog, 30 mg/Kg x 3, subcutaneous injection, suspension in 1% Tween 80): 0 /20 µl; Effect on adult filaria: Number of worms killed/ Total parasite ([3]; dog, 30 mg/Kg x 3, subcutaneous injection, 30 mg/kg): 14/20 and 19/27; anthelmintic effect against microfilaria (mf) ([3]; dogs, administration of 30 mg/Kg repeated three times): marked anthelmintic effect |
| C#CCNOCC=C [Compound D13, N-propargyl-O-allylhydroxylamine] | – | – | – | – | – | – | – | – | – | – | – | – | – | inhibition in vivo at 15 mg/kg ([1]; 15 mg/Kg oral in gelatin capsule): 80 to 90%; inhibition in vivo at 30 mg/kg [1]: 100%; inhibition in vivo at 20 mg/kg ([3]; dog, 20 mg/Kg x 3, subcutaneous injection, read-out: Effect on adult filaria: Percent of worms killed): 63%; inhibition in vivo at 20 mg/kg ([3]; dogs, administration of 20 mg/Kg repeated three times, given as about 50% or more, read-out: anthelmintic effect against adult filaria): ≥ 50%; Number of microfilaria/20µl On 10th day after the administration ([3]; dog, 20 mg/Kg x 3, subcutaneous injection): 0 /20µl; Effect on adult filaria: Number of worms killed/ Total parasite ([3]; dog, 20 mg/Kg x 3, subcutaneous injection, 20 mg/kg): 21/33 and 20/30; Number of microfilaria/20µl Before administration ([3]; dog, before 20 mg/Kg x 3 subcutaneous injection (baseline)): 33 /20µl and 26 /20µl; anthelmintic effect against microfilaria (mf) ([3]; dogs, administration of 20 mg/Kg repeated three times): marked anthelmintic effect |
| C#CCON(CC#C)C(C)=O [Compound E1, N,O-dipropargyl-N-acetylhydroxylamine] | 100 | +++ (100%) | +++ (100%) | +++ (100%) | +++ (100%) | 0 | +++ (100%) | 0 | 0 | +++ (100%) | 0 | 100 | 100 | – |
| C#CCON(CC#C)C(=O)CC [Compound E2, N,O-dipropargyl-N-propionylhydroxylamine] | 100 | +++ (100%) | +++ (100%) | +++ (100%) | +++ (100%) | 0 | +++ (100%) | 0 | 0 | +++ (100%) | 0 | 100 | 100 | – |
| C#CCON(CC#C)C(=O)CCC [Compound E3, N,O-dipropargyl-N-butylylhydroxylamine] | 100 | +++ (100%) | +++ (100%) | +++ (100%) | +++ (100%) | 0 | +++ (100%) | 0 | 0 | +++ (100%) | 0 | 100 | 100 | – |
| C#CCON(CC#C)C(=O)CCCC [Compound E4, N,O-dipropargyl-N-valerylhydroxylamine] | 100 | +++ (100%) | +++ (100%) | +++ (100%) | +++ (100%) | 0 | +++ (100%) | 0 | 0 | +++ (100%) | 0 | 100 | 100 | – |
| C#CCON(CC#C)C(=O)CCCCC [Compound E5, N,O-dipropargyl-N-caproylhydroxylamine] | 100 | +++ (100%) | +++ (100%) | +++ (100%) | +++ (100%) | 0 | +++ (100%) | 0 | 0 | +++ (100%) | 0 | 100 | 100 | – |
